The values below come from patent US20240083839A1, “COMPOSITIONS AND METHODS FOR TREATING NEURODEGENERATIVE DISEASES AND DISORDERS” (The Regents of the University of California, priority 2020, published 2024).

SMILES strings stand for the structures. Where “and” joins values, the source holds several entries; their conditions need not be identical. Equal values may be shown once. Read-outs that look alike come from different tables or passages of the source.

The subject of series [1] is SirT1 levels in N2a-E4 cells. As to the kind of experiment: SirT1 levels by AlphaLISA in ApoE4-transfected N2a cells. The series is classed as cell-based, murine. As to the method:
Prompted by the emerging importance of the associations between ApoE4 and the expression/protein levels of SirT1, high-throughput screening (HTS) of the UCLA compound library was performed using AlphaLISA to detect SirT1 levels in murine neuroblastoma cells stably transfected with ApoE4 (E4-N2a) to identify SirT1 enhancers. […] In the in vivo study, mice were treated orally at 40 mkd (20 mg/kg BID) for 56 days and underwent assessment of cognition in the Novel Object Recognition (NOR) testing paradigm. […] The performance of A03-treated E4-AD mice (FIG. 5A) improved to level of non-transgenic vehicle-treated mice.
For PAMPA in this document: unit not given here.

Take `CC(C)(Cc1ccc(Cl)cc1)OC(=O)C(N)Cc1ccccc1` (stereo not drawn) [MP-01, 1-(4-chlorophenyl)-2-methylpropan-2-yl 2-amino-3-phenylpropanoate]: in series [1], the “SirT1 SOμM” value is reported as “A, A (A >20%)” and the “SirT1 SμM” value is recorded as “A, A (A >20%)”. This compound yielded a PAMPA in the series “PAMPA” of 4.72.
`CC(N)C(=O)OC(C)(C)Cc1ccccc1` (stereo not drawn) [MP-02, 2-methyl-1-phenylpropan-2-yl 2-aminopropanoate]: in series [1], the “SirT1 SOμM” value is listed as “A, A (A >20%)” and the “SirT1 SμM” value is reported as “A, A (A >20%)”. The compound also displayed a PAMPA in “PAMPA” of 3.17.
On to `CC(N)C(=O)OC(C)(C)Cc1ccc(F)c(F)c1` (stereo not drawn) [MP-03, 1-(3,4-difluorophenyl)-2-methylpropan-2-yl 2-aminopropanoate], for which, in series [1], the “SirT1 SOμM” value is “C (C = 100% increase versus control)” and the “SirT1 SμM” value is “B (B >50%)”. The compound also registered a PAMPA in the series “PAMPA” of 2.37.
`CC(N)C(=O)OC(C)(C)Cc1ccc(F)cc1` (stereo not drawn) [MP-04, 1-(4-fluorophenyl)-2-methylpropan-2-yl 2-aminopropanoate]: in series [1], the “SirT1 SOμM” value is “B (B >50%)” and the “SirT1 SμM” value was “A (A >20%)”. Moreover, the PAMPA in the series “PAMPA” amounted to 2.75.
Taken in the same sequence, the figures for `CC(C)CC(N)C(=O)OC(C)(C)Cc1ccc(Cl)cc1` (stereo not drawn) [MP-05, 1-(4-chlorophenyl)-2-methylpropan-2-yl 2-amino-4-methylpentanoate] were “B (B >50%)”, “A (A >20%)” and 5.63.
In the case of `Cc1ccc(CC(C)(C)OC(=O)C(C)N)cc1` (stereo not drawn) [MP-06, 2-methyl-1-p-tolylpropan-2-yl 2-aminopropanoate], in series [1], the “SirT1 SOμM” value is given as “B (B >50%)” and the “SirT1 SμM” value is “A (A >20%)”. For the same compound, the PAMPA in “PAMPA” came out at 4.22.
In the same order, the values of `CC(C)(Cc1ccc(Cl)cc1)OC(=O)CN` [MP-07, 1-(4-chlorophenyl)-2-methylpropan-2-yl 2-aminoethanoate] are “B (B >50%)”, “A (A >20%)” and 4.15.
Taken in the same sequence, the figures for `CC(C)C(N)C(=O)OC(C)(C)Cc1ccc(Cl)cc1` (stereo not drawn) [MP-08, 1-(4-chlorophenyl)-2-methylpropan-2-yl 2-amino-3-methylbutanoate] were “C (C = 100% increase versus control)”, “A (A >20%)” and 4.65.
Take `CC(N)C(=O)OC1(Cc2ccc(Cl)cc2)CCC1` (stereo not drawn) [MP-09, 1-(4-chlorobenzyl)cyclobutyl 2-aminopropanoate]: in series [1], the “SirT1 SOμM” value is given as “A, A (A >20%)” and the “SirT1 SμM” value was “A, A (A >20%)”. Besides, the PAMPA in the series “PAMPA” was determined as 4.16.
Take `CC(N)C(=O)OC1(Cc2ccc(Cl)cc2)CCCCC1` (stereo not drawn) [MP-10, 1-(4-chlorobenzyl)cyclohexyl 2-aminopropanoate]: in series [1], the “SirT1 SOμM” value is “B (B >50%)” and the “SirT1 SμM” value is “A (A >20%)”. Moreover, the PAMPA in the series “PAMPA” was 6.58.
As to `CCC(C)C(N)C(=O)OC(C)(C)Cc1ccc(Cl)cc1` (stereo not drawn) [MP-11, 1-(4-chlorophenyl)-2-methylpropan-2-yl 2-amino-3-methylpentanoate], in series [1], the “SirT1 SOμM” value is recorded as “A, A (A >20%)” and the “SirT1 SμM” value is listed as “A, A (A >20%)”. The PAMPA in the series “PAMPA” is recorded as 5.28.
In the case of `CC(N)C(=O)OC(C)(C)CCc1ccc(Cl)cc1` (stereo not drawn) [MP-12, 4-(4-chlorophenyl)-2-methylbutan-2-yl 2-aminopropanoate], in series [1], the “SirT1 SOμM” value is on record as “A, A (A >20%)” and the “SirT1 SμM” value is “A, A (A >20%)”. The compound also returned a PAMPA in the series “PAMPA” of 4.95.
On to `CC(C)(Cc1ccc(Cl)cc1)OC(=O)C(N)CCCCN` (stereo not drawn) [MP-13, 1-(4-chlorophenyl)-2-methylpropan-2-yl 2,6-diaminohexanoate], for which, in series [1], the “SirT1 SOμM” value is given as “C (C = 100% increase versus control)” and the “SirT1 SμM” value is listed as “A (A >20%)”. Further, in “PAMPA”, the PAMPA was found to be 6.49.
With `CC(N)C(=O)OC(C)(C)Cc1cc(F)cc(F)c1` (stereo not drawn) [MP-14, 1-(3,5-difluorophenyl)-2-methylpropan-2-yl 2-aminopropanoate], in series [1], the “SirT1 SOμM” value is on record as “A, A (A >20%)” and the “SirT1 SμM” value is “A, A (A >20%)”. Moreover, the PAMPA in the series “PAMPA” is given as 2.17.
Turning to `CC(N)C(=O)NC(C)(C)Cc1ccc(Cl)cc1` (stereo not drawn) [MP-15, 2-amino-N-(1-(4-chlorophenyl)-2-methylpropan-2-yl)propanamide], in series [1], the “SirT1 SOμM” value is recorded as “B (B >50%)” and the “SirT1 SμM” value is listed as “A (A >20%)”. The same compound showed a PAMPA in the series “PAMPA” of 2.74.
With `CC(C)(Cc1ccc(Cl)cc1)OC(=O)C(N)CO` (stereo not drawn) [MP-16, 1-(4-chlorophenyl)-2-methylpropan-2-yl 2-amino-3-hydroxypropanoate], in series [1], the “SirT1 SOμM” value was “A, A (A >20%)” and the “SirT1 SμM” value is recorded as “A, A (A >20%)”. Moreover, in “PAMPA”, the PAMPA turned out to be 2.53.
On to `CC(C)(Cc1ccc(Cl)cc1)OC(=O)CCN` [MP-17, 1-(4-chlorophenyl)-2-methylpropan-2-yl 3-aminopropanoate], for which, in series [1], the “SirT1 SOμM” value is “C (C = 100% increase versus control)” and the “SirT1 SμM” value was “A (A >20%)”. The same compound came in with a PAMPA in the series “PAMPA” of 3.86.
Taken in the same sequence, the figures for `C[C@H](N)CC(=O)OC(C)(C)Cc1ccc(Cl)cc1` [MP-18, (S)-1-(4-chlorophenyl)-2-methylpropan-2-yl 3-aminobutanoate] were “A (A >20%)”, “a (a <250%)” and 4.01(2).
Turning to `CC(C)(Cc1ccc(Cl)cc1)OC(=O)C1CCCCN1` (stereo not drawn) [MP-19, 1-(4-chlorophenyl)-2-methylpropan-2-yl piperidine-2-carboxylate], in series [1], the “SirT1 SOμM” value is on record as “A, A (A >20%)” and the “SirT1 SμM” value is reported as “A, A (A >20%)”. This compound yielded a PAMPA in “PAMPA” of 2.61.
As to `CC(C)(Cc1ccc(Cl)cc1)OC(=O)C1CCCN1` (stereo not drawn) [MP-20, 1-(4-chlorophenyl)-2-methylpropan-2-yl pyrrolidine-2-carboxylate], in series [1], the “SirT1 SOμM” value is recorded as “B (B >50%)” and the “SirT1 SμM” value was “A (A >20%)”. For the same compound, the PAMPA in “PAMPA” came to 2.66.
In the same order, the values of `CC(N)C(=O)NC(C)(C)Cc1ccc(F)c(F)c1` (stereo not drawn) [MP-22, -amino-N-(1-(3,4-difluorophenyl)-2-methylpropan-2-yl)propanamide] are “C (C = 100% increase versus control)”, “A (A >20%)” and 1.7.
In the case of `CNC(C)C(=O)OC(C)(C)Cc1ccc(Cl)cc1` (stereo not drawn) [MP-23, 1-(4-chlorophenyl)-2-methylpropan-2-yl 2-(methylamino)propanoate], in series [1], the “SirT1 SOμM” value is “a, a (a <250%)” and the “SirT1 SμM” value is “a, a (a <250%)”. This compound yielded a PAMPA in “PAMPA” of 3.03.
With `CC(C)(Cc1ccc(F)c(F)c1)NC(=O)C1CCCN1C(=O)OC(C)(C)C` (stereo not drawn) [MP-24, tert-butyl 2-(1-(3,4-difluorophenyl)-2-methylpropan-2-ylcarbamoyl)pyrrolidine-1-carboxylate], in series [1], the “SirT1 SOμM” value was “a, a (a <250%)” and the “SirT1 SμM” value is “a, a (a <250%)”. The compound also had a PAMPA in “PAMPA” of 1.27.
In the case of `CC(C)(Cc1ccc(F)c(F)c1)NC(=O)C1CCCN1` (stereo not drawn) [MP-25, N-(1-(3,4-difluorophenyl)-2-methylpropan-2-yl)pyrrolidine-2-carboxamide], in series [1], the “SirT1 SOμM” value is given as “B (B >50%)” and the “SirT1 SμM” value was “A (A >20%)”. The PAMPA in the series “PAMPA” is on record as 1.23(2).
Take `CC(N)C(=O)OC(Cc1ccc(Cl)cc1)c1ccccc1` (stereo not drawn) [MP-26]: in series [1], the “SirT1 SOμM” value is “A, A (A >20%)” and the “SirT1 SμM” value is “A, A (A >20%)”. The compound also registered a PAMPA in “PAMPA” of 3.45.
Regarding `C[C@@H](N)C(=O)NC(C)(C)Cc1ccc(Cl)cc1` [MP-27, (R)-2-amino-N-(1-(4-chlorophenyl)-2-methylpropan-2-yl)propanamide], in series [1], the “SirT1 SOμM” value is “a, a (a <250%)” and the “SirT1 SμM” value is given as “a, a (a <250%)”. In addition, the PAMPA in the series “PAMPA” is listed as 2.72.
Consider `C[C@H](N)C(=O)NC(C)(C)Cc1ccc(Cl)cc1` [MP-28, (S)-2-amino-N-(1-(4-chlorophenyl)-2-methylpropan-2-yl)propanamide], for which, in series [1], the “SirT1 SOμM” value is on record as “B (B >50%)” and the “SirT1 SμM” value is “A (A >20%)”. In addition, the PAMPA in the series “PAMPA” was 2.78 and 2.86.
`CC(C)(Cc1ccc(Cl)cc1)NC(=O)C(C)(C)N` [MP-29, 2-amino-N-(1-(4-chlorophenyl)-2-methylpropan-2-yl)-2-methylpropanamide]: in series [1], the “SirT1 SOμM” value was “a, a (a <250%)” and the “SirT1 SμM” value was “a, a (a <250%)”. For the same compound, the PAMPA in the series “PAMPA” is 2.1.
Take `C[C@H](N)C(=O)NC(C)(Cc1ccc(Cl)cc1)c1ccc(Br)cc1` (stereo partly drawn) [MP-30]: in series [1], the “SirT1 SOμM” value is reported as “A, A (A >20%)” and the “SirT1 SμM” value is “A, A (A >20%)”. In the series “PAMPA”, the PAMPA stood at 2.89.
In the case of `C[C@H](N)C(=O)OC1(Cc2ccc(Cl)cc2)CCCC1` [MP-34, 1-(4-chlorobenzyl)cyclopentyl alaninate], in series [1], the “SirT1 SOμM” value was “A, A (A >20%)” and the “SirT1 SμM” value is “A, A (A >20%)”. The compound further had a PAMPA in the series “PAMPA” of 4.92.
Take `C[C@H](N)C(=O)NC(C)(C)Cc1ccc(F)c(F)c1` [MP-35, (S)-2-amino-N-(1-(3,4-difluorophenyl)-2-methylpropan-2-yl)propanamide]: in series [1], the “SirT1 SOμM” value is “A, A (A >20%)” and the “SirT1 SμM” value is on record as “A, A (A >20%)”. For the same compound, the PAMPA in “PAMPA” stood at 1.7.
For the compound `C[C@@H](N)C(=O)NC(C)(C)Cc1ccc(F)c(F)c1` [MP-36, (R)-2-amino-N-(1-(3,4-difluorophenyl)-2-methylpropan-2-yl)propanamide], in series [1], the “SirT1 SOμM” value is given as “a, a (a <250%)” and the “SirT1 SμM” value is given as “a, a (a <250%)”. The PAMPA in “PAMPA” came to 1.66.
`CC(C)(Cc1ccc(F)c(F)c1)NC(=O)[C@@H](N)c1ccccc1` [MP-37]: in series [1], the “SirT1 SOμM” value is on record as “a (a <250%)” and the “SirT1 SμM” value was “A (A >20%)”. Also, in “PAMPA” (PAMPA), the PAMPA is 1.81.
